PubChem BioAssay (NCI)
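Growth conditions: 96-well plates. Treatment: test compound, 48 hours, 5 concentrations. Analysis: linear interpolation between bracketing concentrations; unreached endpoints set to highest concentration. GI50 is the concentration that inhibits growth by half. The concentration for full growth arrest is given as TGI.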

How the values were obtained:
Test in all cases: inhibition of tumour cell growth, NCI panel, 48 h
[1] = system: UACC-257 melanoma
[2] = system: UO-31 renal
[3] = system: TK-10 renal
[4] = system: HCC-2998 colon
[5] = system: HT29 colon
[6] = system: 786-0 renal
[7] = system: M14 melanoma
[8] = system: SK-MEL-5 melanoma
[9] = system: SK-OV-3 ovarian
[10] = system: OVCAR-3 ovarian
[11] = system: SK-MEL-28 melanoma
[12] = system: HCT-116 colon
[13] = system: HCT-15 colon
[14] = system: NCI-H23 lung
[15] = system: HS 578T breast
[16] = system: EKVX NSCLC
[17] = system: OVCAR-5 ovarian
[18] = system: OVCAR-4 ovarian
[19] = system: A498 renal
[20] = system: PC-3 prostate
[21] = system: SF-295 CNS
[22] = system: SK-MEL-2 melanoma
[23] = system: NCI/ADR-RES ovarian
[24] = system: MDA-MB-231 breast
[25] = system: BT-549 breast
[26] = system: NCI-H460 lung
[27] = system: RXF 393 renal
[28] = system: A549 NSCLC
[29] = system: HOP-92 NSCLC
[30] = system: DU-145 prostate
[31] = system: U251 CNS
[32] = system: SF-539 CNS
[33] = system: SW-620 colon
[34] = system: COLO 205 colon
[35] = system: SF-268 CNS
[36] = system: OVCAR-8 ovarian
[37] = system: HOP-62 NSCLC
[38] = system: SR leukemia
[39] = system: SN12C renal
[40] = system: NCI-H226 lung
[41] = system: CCRF-CEM leukemia
[42] = system: K-562 leukemia
[43] = system: ACHN renal
[44] = system: LOX IMVI melanoma
[45] = system: IGROV1 ovarian
[46] = system: MOLT-4 leukemia
[47] = system: KM12 colon
[48] = system: MALME-3M melanoma
[49] = system: SNB-19 CNS
[50] = system: RPMI-8226 leukemia

For `O=C1C(=O)c2ccccc2C(O)=C1Cc1ccccc1`, the TGI [1] was greater than 100 µM, the TGI [2] was greater than 100 µM and the TGI [3] was greater than 100 µM. For the same molecule, the TGI [4] was greater than 100 µM, the TGI [5] was greater than 100 µM and the TGI [6] was greater than 100 µM. It also gave a TGI [7] greater than 100 µM, a TGI [8] of 39 µM and a TGI [9] greater than 100 µM. The TGI [10] was 79.7 µM, the TGI [11] was greater than 100 µM and the TGI [12] was greater than 100 µM. The TGI [13] was greater than 100 µM, the TGI [14] was greater than 100 µM and the TGI [15] was greater than 100 µM. It also gave a TGI [16] greater than 100 µM, a TGI [17] greater than 100 µM and a TGI [18] greater than 100 µM. For the same molecule, the TGI [19] was greater than 100 µM, the TGI [20] was greater than 100 µM and the TGI [21] was greater than 100 µM. For the same molecule, the TGI [22] was greater than 100 µM, the TGI [23] was greater than 100 µM and the TGI [24] was greater than 100 µM. The TGI [25] was greater than 100 µM.
Work on `COc1cc(C(C)c2ccc3c(ccn3C)c2)cc(OC)c1OC` (centres undefined) yielded a GI50 [1] of 19.4 µM, a TGI [1] of 77.6 µM and a GI50 [26] of 0.0117 µM. It also gave a TGI [26] greater than 100 µM, a GI50 [27] of less than 0.01 µM and a TGI [27] greater than 100 µM. For the same molecule, the GI50 [28] was 0.0233 µM, the TGI [28] was greater than 100 µM and the GI50 [29] was 0.0251 µM. It also gave a TGI [29] of 45.4 µM, a GI50 [2] of 0.189 µM and a TGI [2] of 62.2 µM. It also gave a GI50 [3] of 16.5 µM, a TGI [3] of 92.6 µM and a GI50 [30] of 0.0343 µM. It also gave a TGI [30] greater than 100 µM, a GI50 [31] of less than 0.01 µM and a TGI [31] of 39 µM. It also gave a GI50 [32] of less than 0.01 µM, a TGI [32] of 15.2 µM and a GI50 [4] of 0.0276 µM. For the same molecule, the TGI [4] was greater than 100 µM, the GI50 [5] was less than 0.01 µM and the TGI [5] was 14.2 µM. It also gave a GI50 [33] of less than 0.01 µM, a TGI [33] greater than 100 µM and a GI50 [34] of less than 0.01 µM. The TGI [34] was 0.0461 µM, the GI50 [35] was 0.0393 µM and the TGI [35] was greater than 100 µM. For the same molecule, the GI50 [6] was 0.0288 µM, the TGI [6] was 26.7 µM and the GI50 [7] was less than 0.01 µM. It also gave a TGI [7] of 22 µM, a GI50 [36] of 0.0363 µM and a TGI [36] of 38.5 µM. For the same molecule, the GI50 [37] was 0.0385 µM, the TGI [37] was greater than 100 µM and the GI50 [8] was less than 0.01 µM. For the same molecule, the TGI [8] was 0.391 µM, the GI50 [38] was less than 0.01 µM and the TGI [38] was greater than 100 µM. The GI50 [9] was less than 0.01 µM, the TGI [9] was 60.7 µM and the GI50 [39] was 0.0671 µM. The TGI [39] was greater than 100 µM, the GI50 [11] was 8.09 µM and the TGI [11] was greater than 100 µM. It also gave a GI50 [40] of 10.9 µM, a TGI [40] of 57.3 µM and a GI50 [13] of 0.0106 µM. It also gave a TGI [13] greater than 100 µM, a GI50 [14] of 0.0268 µM and a TGI [14] greater than 100 µM. It also gave a GI50 [41] of 0.0307 µM, a TGI [41] greater than 100 µM and a GI50 [15] of 0.0148 µM. It also gave a TGI [15] greater than 100 µM, a GI50 [42] of less than 0.01 µM and a TGI [42] greater than 100 µM. It also gave a GI50 [43] of 0.0172 µM, a TGI [43] greater than 100 µM and a GI50 [44] of 0.0207 µM. It also gave a TGI [44] greater than 100 µM, a GI50 [16] of 0.0674 µM and a TGI [16] greater than 100 µM. It also gave a GI50 [45] of 0.0291 µM, a TGI [45] greater than 100 µM and a GI50 [17] of 0.0559 µM. The TGI [17] was greater than 100 µM, the GI50 [18] was 0.414 µM and the TGI [18] was greater than 100 µM. The GI50 [20] was 0.0171 µM, the TGI [20] was greater than 100 µM and the GI50 [21] was less than 0.01 µM. The TGI [21] was 32.5 µM, the GI50 [22] was 0.0984 µM and the TGI [22] was 95.8 µM. It also gave a GI50 [46] of 0.0449 µM, a TGI [46] greater than 100 µM and a GI50 [47] of less than 0.01 µM. For the same molecule, the TGI [47] was 60.2 µM, the GI50 [48] was 11.6 µM and the TGI [48] was 63.3 µM. It also gave a GI50 [23] of less than 0.01 µM, a TGI [23] greater than 100 µM and a GI50 [24] of 0.0551 µM. The TGI [24] was 34.8 µM, the GI50 [25] was 0.0231 µM and the TGI [25] was 19.3 µM. The GI50 [49] was 0.0405 µM, the TGI [49] was greater than 100 µM and the GI50 [50] was 0.0362 µM. The TGI [50] was 22.6 µM.
